Results published in patent US20040102454A1, “Phenylahistin and the phenylahistin analogs, a new class of anti-tumor compounds” (priority 1998, published 2004).
Several values for one entry are separate records, joined by “and”; a condition that tells them apart may be missing. Equal values may be shown once.

Assays:
[1] = tested on: tubulin in Human umbilical vein endothelial cells (HuVEC); test: Action on microtubule function, staining for α-tubulin; type: cell-based; settings: 2 μM, thirty minutes exposure
[2] = tested on: Caspase-3 in Jurkat cells; test: Activation of the caspase cascade; type: cell-based
Text: Several enzymes in the caspase cascade are activated during apoptosis, including Caspase-3, -8 and-9. The activity of Caspase-3 was monitored in Jurkat cells following treatment with t-butyl-phenylahistin.

T. rubrum isolate #1 = test: Antifungal susceptibility testing, broth dilution (NCCLS M38-A); type: cell-based, Trichophyton rubrum; settings: dermatophytes
Method: Antifungal susceptibility testing was accomplished according to the methods outlined in the National Committee for Clinical Laboratory Standards, M38-A “Reference Method for Broth Dilution Antifungal Susceptibility Testing of Conidium-Forming Filamentous Fungi; Approved Standard.” This includes testing in RPMI-1640 with glutamine and without bicarbonate, an inoculum size of 0.4-5×10^4, and incubation at 30 or 35° C. for 48 hours. […] Drug concentrations were 0.03-16 μg/ml for the investigational compounds, 0.015-8 μg/ml for itraconazole and griseofulvin.
The minimum lethal concentration (MLC) was determined by plating […] from the MIC concentration and each concentration above the MIC. […] When a MIC was obtained, a minimum fungicidal concentration (MFC) was determined to assess the fungistatic/fungicidal nature of the compound. […] The compound is scored as fungistatic if the cells are able to resume growth and fungicidal if no regrowth is possible because the compound had killed the organisms.

[3] = tested on: MES-SA (Taxol Sensitive) human uterine sarcoma tumor cell line; test: Drug resistant cell line pair, cytotoxicity; type: cell-based
Text: (§1) MES-SA (Taxol Sensitive) and MES-SA DX (Taxol Resistant). This cell line expresses elevated mdr-1 mRNA and P-glycoprotein (an extrusion pump mechanism). Pretreatment with cyclosporin-A (CsA) blocks P-glycoprotein and reinstates activity in the resistant cell line for those compounds for which the resistance is due to elevated P-glycoprotein.

[4] = tested on: MES-SA DX (Taxol Resistant) human uterine sarcoma tumor cell line; test: Drug resistant cell line pair, cytotoxicity; type: cell-based; settings: MES-SA DX Resistant
Text: as §1

HuVEC monolayer = HuVEC monolayer permeability to FITC-Dextran; type: cell-based, human
Text: This vascular collapse is preceded by a rapid induction of vascular cell permeability initially to electrolytes and soon after to large molecules. The enhanced permeability of HuVEC cells to a fluorescent-labeled dextran is used as a proxy assay for vascular collapse.

[5] = tested on: DU-145 human prostate tumor; test: DU-145 Human Prostate Tumor Xenograft Model; type: in vivo, nude mice; settings: alone and in combination with taxotere
Method: Male mice were implanted s.c. by trocar with fragments of DU-145 tumors harvested from s.c. growing tumors in nude male mice hosts. When the tumors reached ˜5 mm×5 mm ( at about 13-17 days) the animals were matched into treatment and control groups. The remainder of the study proceeded as for the HT-29 model, using taxotere as the standard chemotherapy agent.
In this model unless otherwise noted for the individual study, test compound was administered via the intraperitoneal route on Days 1, 3, 5, 8 and 11 (q3d×5); taxotere was administered intravenously on Days 1, 3 and 5 (q2d×3).
The study involved an assessment of t-butyl-phenyalhistin alone and in combination with taxotere.

MCF-7 human breast tumor = test: MCF-7 Human Breast Tumor Xenograft Model; type: in vivo, nude mice; settings: in combination with taxotere; compound Days 1, 2, 3, 4, and 7
Method: Female nude mice (˜20 g) were implanted s.c. with 21-day release estrogen (0.25 mg) pellets 24 hours prior to the s.c. implantation with MCF-7 tumor fragments (harvested from s.c. tumors in nude mice hosts). The study then proceeded as described for the HT-29 model, using taxotere as the standard chemotherapy agent.
In this model unless otherwise noted for the individual study, the novel compound was injected via the intraperitoneal route daily on Days 1-5, inclusive (qd×5); taxotere was administered intravenously on Days 1, 3 and 5 (qod×3).
This study considered the effects of t-butyl-phenylahistin in the MCF-7 human breast tumor xenograft model. The doses of the compound were administered on Days 1, 2, 3, 4, and 7; Taxotere was administered on Days 1, 3 and 7.

[6] = tested on: HL-60 (Mitoxantrone-Sensitive) human acute promyelocytic leukemia cell line; test: Drug resistant cell line pair, cytotoxicity; type: cell-based; settings: HL-60 Sensitive
Text: 2) Human Acute Promyelocytic Leukemia Cell Line Pair: HL-60 (Mitoxantrone-Sensitive) and HL-60/MX-2 (Mitoxantrone-Resistant)
This cell line is considered to have atypical drug resistance properties with altered topoisomerase II catalytic activity without overexpression of P-glycoprotein.

[7] = tested on: MDA-MB-231 Breast (human breast tumor); test: Tumor Panel Screen, Resazurin cytotoxicity assay; type: cell-based
Text: (§2) The following cell lines (source in parentheses) were used: HT29 (human colon tumor; ATCC; HTB-38), PC3 (human prostate tumor; ATCC; CRL-1435), MDA-MB-231 (human breast tumor; ATCC; HTB-26), NCI-H292 (human non-small cell lung tumor; ATCC; CRL-1848), OVCAR-3 (human ovarian tumor; ATCC; HTB-161), B16-F10 (murine melanoma; ATCC; CRL-6475) and CCD-27 sk (normal human fibroblast; ATCC; CRL-1475). Cells were maintained at subconfluent densities in their respective culture media.
(§3) Cytotoxicity assays were performed as described above in Example 4, using Resazurin fluorescence as an indicator of cell viability.

[8] = tested on: B16-F10 Melanoma (murine melanoma); test: Tumor Panel Screen, Resazurin cytotoxicity assay; type: cell-based
Text: as §2, §3

[9] = tested on: NCI-H292 Lung (human non-small cell lung tumor); test: Tumor Panel Screen, Resazurin cytotoxicity assay; type: cell-based
Text: as §2, §3

[10] = tested on: HT-29 Colon (human colon tumor); test: Tumor Panel Screen, Resazurin cytotoxicity assay; type: cell-based
Text: as §2, §3

[11] = tested on: PC-3 Prostate (human prostate tumor); test: Tumor Panel Screen, Resazurin cytotoxicity assay; type: cell-based
Text: as §2, §3

[12] = tested on: OVCAR-3 Ovary (human ovarian tumor); test: Tumor Panel Screen, Resazurin cytotoxicity assay; type: cell-based
Text: as §2, §3

[13] = tested on: CCD-27sk Fibroblast (normal human fibroblast); test: Tumor Panel Screen, Resazurin cytotoxicity assay; type: cell-based
Text: as §2, §3

HT-29 human colon tumor = test: HT-29 Human Colon Tumor Xenograft Model; type: in vivo, nude mice
Method: Animals used were (exceptions are indicated for individual studies): female nude mice (nu/nu) between 5 and 6 weeks of age (˜20 g, Harlan); group size was 9-10 mice per group unless otherwise indicated. The selected novel compound was administered as monotherapy via the intraperitoneal (i.p.) route at the doses indicated for the individual study; for the combination studies the selected reference chemotherapy agents were injected 15-30 min prior to the compound. Vehicles used in these studies were: 12.5% DMSO, 5% Cremaphor and 82.5% peanut oil for the selected novel compounds; (1:3) Polysorbate 80:13% ethanol for taxotere; […] Saline dilutions are used to achieve the injection concentrations used for the reference compounds. Animals were implanted subcutaneously (s.c.) by trocar with fragments of HT-29 tumors harvested from s.c. growing tumors in nude mice hosts. […] CPT-11 was administered intraperitoneally on days 1, 8 and 15 (qw×3).

[14] = tested on: HL-60/MX-2 (Mitoxantrone-Resistant) human acute promyelocytic leukemia cell line; test: Drug resistant cell line pair, cytotoxicity; type: cell-based; settings: HL-60 Resistant
Text: HL-60 (Mitoxantrone-Sensitive) and HL-60/MX-2 (Mitoxantrone-Resistant) This cell line is considered to have atypical drug resistance properties with altered topoisomerase II catalytic activity without overexpression of P-glycoprotein.

In the case of `CC(C)(C)c1[nH]cnc1/C=C1\NC(=O)[C@H](Cc2ccccc2)NC1=O` [t-butyl-phenylahistin], the microtubule depolymerization [1] is reported as “induced microtubule depolymerization”, the caspase-3 activation [2] is reported as “activated in a dose-dependent manner” and the “potency compared to griseofulvin” value (T. rubrum isolate #1) is reported as “at least was equivalent in potency”. For the same compound, the IC50 ([3]; CsA Pretreat) was 162 nM, the IC50 ([3]; No CsA) was 144 nM and 122 nM and the IC50 ([4]; CsA Pretreat) was 622 nM. For the same compound, the IC50 ([4]; No CsA) was 825 nM and 694 nM, the “time to induction of HuVEC monolayer permeability” value (HuVEC monolayer) was no more than 1 h and the HuVEC monolayer permeability (HuVEC monolayer; FITC-Dextran) was “induced significant HuVEC monolayer permeability”. For the same compound, the “tumor growth inhibition indices (excised tumor weights)” value [5] was “marked inhibition of tumor growth”, the “effect on estimated tumor growth” value (MCF-7 human breast tumor) was “significant potentiation of taxotere” and the IC50 [6] was 255 nM. The “% Cytotoxicity, Mean” value [7] was 65.5%, the IC50 [7] was 387 nM and the “% Cytotoxicity, Mean” value [8] was 74%. For the same compound, the IC50 [8] was 736 nM, the “% Cytotoxicity, Mean” value [9] was 65% and the IC50 [9] was 384 nM. For the same compound, the “% Cytotoxicity, Mean” value [10] was 88%, the IC50 [10] was 420 nM and the “% Cytotoxicity, Mean” value [11] was 59.5%. The IC50 [11] was 174 nM, the “% Cytotoxicity, Mean” value [12] was 37% and the IC50 [12] was greater than 20000 nM. For the same compound, the “% Cytotoxicity, Mean” value [13] was 45%, the IC50 [13] was greater than 20000 nM and the Comments (HT-29 human colon tumor; combination with CPT-11) was “Synergy”. For the same compound, the “NPI-Compound Result TGI %” value (HT-29 human colon tumor; monotherapy 30 mg/kg ip q3dx5, study 2139) was “No Effect”, the “Exceed NCI Criterion (TGI 58%)” value (HT-29 human colon tumor; study 2139) was “Combination” and the “Combination Results TGI %” value (HT-29 human colon tumor; t-butyl-phenylahistin 30 mg/kg ip q3dx5 + CPT-11 100 ip qwx3, p < 0.05 vs Control and vs CPT-11 Alone) was 77.7%. For the same compound, the IC50 (Jurkat cells) was 165 nM and the IC50 [14] was 175 nM.
